Assay results as given in US20240051956A1, “SOS1 INHIBITORS AND USES THEREOF” (QILU REGOR THERAPEUTICS INC., priority 2020, published 2024).

Key:
SOS1 and KRAS G12D = SOS1 and KRAS G12D (Homo sapiens (Human), UniProt Q07889); assay: KRAS::SOS1 AlphaScreen Binding Assay; conditions: SOS1 (564-1049), KRAS G12D (1-169), GDP
Excerpt: a. KRAS::SOS1 AlphaScreen Binding Assay
Low IC50 values of given compounds are indicative of high potency of the SOS1 inhibitor compounds in this assay setting.
• GST-TEV-SOS1 (564-1049) and His-TEV-Avi-KRAS G12D (1-169) are purchased from Viva Biotech (Shanghai) Ltd. • GDP (Sigma, Cat. G7127) • AlphaLISA Glutathione Acceptor Beads (PerkinElmer, Cat. AL109C) • AlphaScreen Streptavidin Donor Beads (PerkinElmer, Cat. 6760002S) • Assay plates: ProxiPlate-384 Plus, White 384-shallow well Microplate (PerkinElmer, Cat. 6008280)
SOS1 inhibitor compounds are diluted to a final start concentration of […]. Serial dilutions of compounds are made using Tecan D300e Digital Dispenser in 9 concentrations with serial 1:3 dilutions. 100 nL of compound solution is transferred to the 384-well assay plate per well, covering a range between 1 μM and 0.15 nM minimum in duplicate. 10 nM (final assay concentration) KRAS G12D, 5 nM (final assay concentration) SOS1 and 10 μM (final assay concentration) GDP are mixed in assay buffer, and 5 μL of KRAS::SOS1 GDP mix is added into the assay plate to the 100 nL of compound solution (final dilution in the assay 1:100, final DMSO concentration 1%). After a 30 min incubation, AlphaLISA Glutathione Acceptor Beads and AlphaScreen Streptavidin Donor Beads are mixed in assay buffer at a concentration of 5 µg/mL (final assay concentration), and 5 μL of bead mix is added into the assay plate. Plates are kept at room temperature in a darkened incubator for 3 h. After a 3 h incubation, the signal is determined using Envision (PerkinElmer). The excitation wavelength is 680 nm, and emission 615 nm. IC50 values are calculated and analyzed using GraphPad Prism.

NCI-H358 = assay: Cell proliferation assay, 3D, CellTiter-Glo 3D; type: cell-based, human; conditions: Homo sapiens, 72 h; NCI-H358 (KRAS G12C), 3D ultra-low attachment, 3 days; read-out: anit-prolif. H358 IC50
Experimental: b. Cell Proliferation Assay
Low IC50 values are indicative of high potency of the compounds in this assay setting.
Cell proliferation assay is performed in three-dimensional (3D) ultra-low conditions with the human cell line NCI-H358, a human non-small cell lung cancer (NSCLC) cell line with a KRAS G12C mutation.
• 96-well Clear Round Bottom Ultra-Low Attachment Microplate (Corning, Cat. 7007) • 96-well Flat Clear Bottom White Polystyrene TC-treated Microplates (Corning, Cat. 3610) • RPMI-1640 Medium (Gibco, Cat. 22400105) • Fetal Bovine Serum (FBS) (Gibco, Cat. 10099141C) • 0.25% Trypsin-EDTA (Gibco, Cat. 25200056) • Penicillin-Streptomycin (Gibco, Cat. 15140122) • CellTiter-Glo 3D Cell Viability Assay (Promega, Cat. G9683)
NCI-H358 cells (ATCC, Cat. CRL-5807) are grown in cell culture flasks using RPMI medium supplemented with 10% FBS. Cells are incubated at 37° C. and 5% C02 in a humidified atmosphere, with sub-cultivation performed twice a week. Cells are trypsinized, counted and plated in 96-well ultra-low adhesion plates for 3D cell viability determination. The day after plating, serial dilutions of SOS1 inhibitor compounds are made using Tecan D300e Digital Dispenser to evaluate a concentration-dependent effect on cell viability. The concentration of the test compounds covers a range between 5 μM and 0.76 nM with serial 1:3 dilutions in 9 concentrations. 0.5 μL serial dilutions of the compounds are added in duplicates. 3 days later, the CellTiter-Glo 3D Cell Viability Assay is used to measure cell viability effects of SOS1 inhibitor compounds in 3D format. Luminescent intensity is determined using Envision (PerkinElmer). Data is analyzed and IC50 values are calculated using GraphPad Prism.

SOS1 and KRAS G12D, sequence (Q07889 564-1049, stated change not applied): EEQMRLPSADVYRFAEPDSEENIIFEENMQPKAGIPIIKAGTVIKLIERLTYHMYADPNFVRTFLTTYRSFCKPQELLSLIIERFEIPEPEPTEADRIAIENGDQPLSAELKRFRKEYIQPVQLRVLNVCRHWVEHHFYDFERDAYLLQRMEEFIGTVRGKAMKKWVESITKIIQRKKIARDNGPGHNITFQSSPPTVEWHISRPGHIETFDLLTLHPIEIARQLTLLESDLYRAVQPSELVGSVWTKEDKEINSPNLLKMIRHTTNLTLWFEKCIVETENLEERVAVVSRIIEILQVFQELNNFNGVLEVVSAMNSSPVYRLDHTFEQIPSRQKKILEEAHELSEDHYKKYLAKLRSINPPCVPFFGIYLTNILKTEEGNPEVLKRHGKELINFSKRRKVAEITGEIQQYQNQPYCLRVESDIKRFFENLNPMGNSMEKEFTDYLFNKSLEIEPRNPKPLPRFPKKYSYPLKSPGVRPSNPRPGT

Compound	IC50 (SOS1 and KRAS G12D)	IC50 (NCI-H358)
Cc1nc(N[C@H](C)c2cccc(C(F)F)c2F)c2cn(N3CCCCC3)c(=O)cc2n1 [Example 2]	≤ 15 nM	≤ 100 nM
Cc1nc(N[C@H](C)c2cccc(C(F)F)c2F)c2cn(N3CCC(F)(F)CC3)c(=O)cc2n1 [Example 3]	≤ 15 nM	100 to 500 nM
Cc1nc(N[C@H](C)c2cccc(C(F)F)c2F)c2cn(N3CCN(C(=O)OC(C)(C)C)CC3)c(=O)cc2n1 [Example 4]	15 to 150 nM	100 to 500 nM
Cc1nc(N[C@H](C)c2cccc(C(F)F)c2F)c2cn(N3C[C@@H](C)O[C@@H](C)C3)c(=O)cc2n1 [Example 5]	≤ 15 nM	100 to 500 nM
Cc1nc(N[C@H](C)c2cccc(C(F)F)c2F)c2cn(N3CCCOCC3)c(=O)cc2n1 [Example 6]	≤ 15 nM	≤ 100 nM
COC1CCN(n2cc3c(N[C@H](C)c4cccc(C(F)F)c4F)nc(C)nc3cc2=O)CC1 [Example 7]	≤ 15 nM	100 to 500 nM
Cc1nc(N[C@H](C)c2cccc(C(F)F)c2F)c2cn(N3CC4CC3CO4)c(=O)cc2n1 (stereo partly drawn) [Example 8]	≤ 15 nM	100 to 500 nM
Cc1nc(N[C@H](C)c2cccc(C(F)F)c2F)c2cn(N3CC4(COC4)C3)c(=O)cc2n1 [Example 9]	≤ 15 nM	100 to 500 nM
Cc1nc(N[C@H](C)c2cccc(C(F)F)c2F)c2cn(N3CCNCC3)c(=O)cc2n1 [Example 10, 4-[[(1R)-1-[3-(difluoromethyl)-2-fluoro-phenyl]ethyl]amino]-2-methyl-6-piperazin-1-yl-pyrido[4,3-d]pyrimidin-7-one]	≤ 15 nM	> 1000 nM
CC(=O)N1CCN(n2cc3c(N[C@H](C)c4cccc(C(F)F)c4F)nc(C)nc3cc2=O)CC1 [Example 11, 6-(4-acetylpiperazin-1-yl)-4-[[(1R)-1-[3-(difluoromethyl)-2-fluoro-phenyl]ethyl]amino]-2-methyl-pyrido[4,3-d]pyrimidin-7-one]	≤ 15 nM	500 to 1000 nM

Results, then the compound that gave them:

IC50 (SOS1 and KRAS G12D)	IC50 (NCI-H358)	Compound
> 1000 nM	–	Cc1nc(NC(C)C2CC2)c2cn(N3CCOCC3)c(=O)cc2n1 (stereo not drawn) [Example 23]
15 to 150 nM	–	Cc1nc(NCc2cccc(C(F)(F)F)c2)c2cn(N3CCOCC3)c(=O)cc2n1 [Example 26]
> 1000 nM	–	Cc1nc(NCc2ccc3cc[nH]c3c2)c2cn(N3CCOCC3)c(=O)cc2n1 [Example 27]
150 to 1000 nM	–	Cc1nc(NC(C)c2cc(C(F)F)cc(C(F)F)c2)c2cn(N3CCOCC3)c(=O)cc2n1 (stereo not drawn) [Example 28]
≤ 15 nM	–	Cc1nc(N[C@H](C)c2cccc(C(F)F)c2F)c2cn(N3CCOCC3)c(=O)c(-c3ccc(C(=O)O)nc3)c2n1 [Example 78]
≤ 15 nM	–	COC(=O)c1ccc(-c2c(=O)n(N3CCOCC3)cc3c(N[C@H](C)c4cccc(C(F)F)c4F)nc(C)nc23)cn1 [Example 79]
≤ 15 nM	–	Cc1nc(N[C@H](C)c2cccc(C(F)F)c2F)c2cn(N3CCOCC3)c(=O)c(-c3ccc(C(N)=O)nc3)c2n1 [Example 80]
≤ 15 nM	–	Cc1nc(N[C@H](C)c2cccc(C(F)F)c2F)c2cn(N3CCOCC3)c(=O)c(-c3ccn[nH]3)c2n1 [Example 81]
≤ 15 nM	–	Cc1nc(N[C@H](C)c2cccc(C(F)(F)CO)c2)c2cn(N3CCOCC3)c(=O)c(-c3ccc(C#N)nc3)c2n1 [Example 82]
≤ 15 nM	–	Cc1nc(N[C@H](C)c2cc(N)cc(C(F)(F)F)c2)c2cn(N3CCOCC3)c(=O)c(-c3ccc(C#N)nc3)c2n1 [Example 83]
≤ 15 nM	–	Cc1nc(N[C@H](C)c2cccc(C(F)F)c2F)c2cn(N3CCOCC3)c(=O)c(-c3cnc4nccn4c3)c2n1 [Example 84]
≤ 15 nM	–	Cc1nc(N[C@H](C)c2cccc(C(F)F)c2F)c2cn(N3CCOCC3)c(=O)c(C3=CCS(=O)(=O)CC3)c2n1 [Example 85]
150 to 1000 nM	–	Cc1nc(N[C@H](C)c2cccc(C(F)F)c2F)c2cn(-n3cnnc3)c(=O)c(F)c2n1 [Example 87]
